Where two headings read alike, the source gives them in different places. Square brackets hold non-standard residues; d marks the D form. Ends that are not written are not given here. Nle = CCCC[C@H](N)C(=O)O
Columns and labels:
[1] = test system: rabbit polyclonal antiserum to the 38-57 loop peptide; assay: Competition radioimmunoassay with rabbit polyclonal antiserum to the 38-57 loop peptide; assay type: binding
Procedure: In the preceding examples, the studied available smallest peptide highly reactive to H-18 MAB was the 40-52 residue peptide and therefore, it was contemplated that the entire epitope resided within this sequence. By the procedures described in earlier examples for other peptides, peptides representing 50-52, 49-52, 48-52, 47-52, 46-52, 45-52, 44-52, 43-52, 42-52, and 41-52 were prepared and tested for reactivity with H-18 MAB and a rabbit polyclonal antiserum to the 38-57 loop peptide.
By earlier described procedures for other peptide preparations, peptides 43-45, 43-46, 43-48, 43-49, 43-50, and 43-51 were prepared to define the C-terminal boundary of the H-18 MAB epitope and to determine whether polyclonal antisera to the 38-57 loop reacted to sequences beyond the H-18 boundary. […] This latter immunogenicity could involve N-terminal residues 41 and 42 and the C-terminal residue 51.
Peptides with amino acid substitutions in the 43-50 sequence were unreactive.

pituitary HLH = assay: Antibodies bound to pituitary HLH raised by conjugated 38-57 loop analogs and reference conjugates (Example XLIV); assay type: in vivo, human; conditions: mean peak binding of the antisera
Procedure: (§1) In an effort to obtain improved results over the analogs described in my earlier Example XLIII, further synthetic analogs of the unsubstituted 38-57 amino acid sequence of βHCG were prepared and evaluated in a similar manner as set forth in the prior examples. These analogs were provided with a disulfide bridge linking their 38 Cys and 57 Cys to form a loop and included the amino acid residue Ala (Pro)6 on the N-terminus as described earlier herein.
(§2) Table 33 illustrates nine analogs of the 38-57 loop peptide of βHCG with a varying number of amino acid substitutions in the positions outside the conceived 43-50 epitope sequence.
(§3) The antibodies values are expressed herein are as namomoles bound/L unless otherwise stated.

HCG = assay: Antibodies bound to HCG raised by conjugated 38-57 loop analogs and reference conjugates (Example XLIV); assay type: in vivo, human; conditions: for antibodies bound to HCG: mean peak binding of the antisera
Procedure: as §1, §2, §3

Friends' Leukemia Virus = assay: Survival of immunized SJL/J mice inoculated with Friends' Leukemia Virus; assay type: in vivo; parameters: concentration or dose not given beside the values
Text: The mice used in this experiment were six-week old female mice of SJL/J strain. A test group and a control group, each containing approximately 20 mice were selected at random and were immunized in the same manner as in Example XXXVI above, the test animals receiving the vaccine containing the peptide/diphtheria toxoid conjugate and the control group receiving the vaccine containing only the vehicle. However, in this experiment a different immunization schedule was followed: the original immunization was followed by booster immunizations 4, 9, 20 and 29 weeks later. Six weeks after the first immunization (i.e. two weeks after the second immunization) each mouse was injected with approximately 1 million Friends' Leukemia Virus and the mice were observed daily for deaths.

female baboons [2] = assay: Fertility rates (matings and pregnancies) of immunized female baboons; assay type: in vivo, baboon; conditions: for Fertility Rate (%) / No. Pregnant: female baboons
[3] = test system: Ridgeway Osteogenic Sarcoma; assay: Growth of Ridgeway Osteogenic Sarcoma in immunized AKR mice; assay type: in vivo
Text: Sixty mice of the AKR strain were divided at random into a test group and a control group each comprising 30 mice. The test group were then immunized in the same manner as in Examples XXXVI and XXXVII with a vaccine comprising the same conjugate as in those Examples dissolved in Freund's Complete Adjuvant, while the control group simply received the Freund's Adjuvant. Booster Immunizations were given to each group three and seven weeks after the first immunization. […] In the mice in which the tumor survived, tumor volume measurements were made 22, 26, 29, 31, 33, 38, 40 and 43 days after innoculation with the Sarcoma. […] Nevertheless, the results in Table 27 do show a significant reduction in the rate of tumor growth in the conjugate-immunized mice.

female baboons [4] = test system: female baboons
progesterone = conditions: female baboons
[5] = post-immunization menstrual cycle 1
[6] = post-immunization menstrual cycle 2
[7] = post-immunization menstrual cycle 3
[8] = post-immunization menstrual cycle 4
[9] = post-immunization menstrual cycle 5
[10] = pre-immunization menstrual cycle −1
[11] = pre-immunization menstrual cycle −2
[12] = pre-immunization menstrual cycle −3

Substance: CPTMTRVLQGVLPALPQVVC (cysteine pairing not given here) [Structure (XXVII)]
- antibodies against the peptide not directed to the 43-50 region [1]: about 5%

Substance: CPT[Nle]DRVLQGVLPAVPQVVC (cysteine pairing not given here) [analog number 2]
- antibodies bound to pituitary HLH (pituitary HLH): 13 nanomoles bound/L
- HCG antibodies bound, of those using the conjugated unsubstituted 38-57 loop sequence (HCG; in vivo): about 75%
- antibodies bound to HCG (HCG): 420 nanomoles bound/L

Substance: Conjugate (TCDDPRFQDSSSSKAPPPSLPSPSRLPGPSDTPILPQ; also: conjugated to foreign carrier; listed as Homo sapiens)
- Survival Rate - % (Friends' Leukemia Virus; 0 days after inoculation with Friends' Leukemia Virus): 100.0%
- Survival Rate - % (Friends' Leukemia Virus; 22 days after inoculation): 100.0%
- Survival Rate - % (Friends' Leukemia Virus; 29 days after inoculation): 100.0%
- Survival Rate - % (Friends' Leukemia Virus; 98 days after inoculation (day of booster immunization)): 100.0%
- Survival Rate - % (Friends' Leukemia Virus; 160 days after inoculation): 100.0%
- Survival Rate - % (Friends' Leukemia Virus; 163 days after inoculation (day of booster immunization)): 100.0%
- Survival Rate - % (Friends' Leukemia Virus; 166 days after inoculation): 100.0%
- Survival Rate - % (Friends' Leukemia Virus; 175 days after inoculation): 100.0%
- Survival Rate - % (Friends' Leukemia Virus; 180 days after inoculation): 100.0%
- Fertility Rate (%) (female baboons [2]; mating cycle 1): 0%
- No. Pregnant (female baboons [2]; mating cycle 1): 0
- Fertility Rate (%) (female baboons [2]; mating cycle 2): 6.7%
- No. Pregnant (female baboons [2]; mating cycle 2): 1
- Fertility Rate (%) (female baboons [2]; mating cycle 3): 7.1%
- No. Pregnant (female baboons [2]; mating cycle 3): 1
- Fertility Rate (%) (female baboons [2]; totals of mating cycles 1-3): 4.6%
- No. Pregnant (female baboons [2]; totals of mating cycles 1-3): 2
- Mean Tumor Volume - cm^3 ([3]; day 22 of tumor growth): 0.65 cm^3
- Mean Tumor Volume - cm^3 ([3]; day 26 of tumor growth): 0.68 cm^3
- Mean Tumor Volume - cm^3 ([3]; day 29 of tumor growth): 1.20 cm^3
- Mean Tumor Volume - cm^3 ([3]; day 31 of tumor growth): 2.24 cm^3
- Mean Tumor Volume - cm^3 ([3]; day 33 of tumor growth): 3.04 cm^3
- Mean Tumor Volume - cm^3 ([3]; day 36 of tumor growth): 3.14 cm^3
- Mean Tumor Volume - cm^3 ([3]; day 38 of tumor growth): 4.40 cm^3
- Mean Tumor Volume - cm^3 ([3]; day 40 of tumor growth): 5.54 cm^3
- Mean Tumor Volume - cm^3 ([3]; day 43 of tumor growth): 5.00 cm^3

Substance: conjugate including the βHCG 109-145 amino acid sequence: conjugate of the βHCG 109-145 sequence tested in Example XLIV (TCDDPRFQDSSSSKAPPPSLPSPSRLPGPSDTPILPQ; also: conjugated to carrier; UniProt P0DN86 129-165, looked up, fragment)
- antibodies bound to pituitary HLH (pituitary HLH): 0 nanomoles bound/L
- antibodies bound to HCG (HCG): 1240 nanomoles bound/L

Substance: diphtheria toxoid
- Cycle Length (days), Mean (female baboons [4]; [5]): 32.7 days
- Cycle Length (days), Mean (female baboons [4]; [6]): 33.1 days
- Cycle Length (days), Mean (female baboons [4]; [7]): 34.0 days
- Cycle Length (days), Mean (female baboons [4]; [8]): 30.0 days
- Cycle Length (days), Mean (female baboons [4]; [9]): 31.0 days
- Cycle Length (days), Mean (female baboons [4]; [10]): 33.2 days
- Cycle Length (days), Mean (female baboons [4]; [11]): 33.5 days
- Cycle Length (days), Mean (female baboons [4]; [12]): 34.4 days
- Luteal phase Progesterone (ng/ml), Mean (progesterone; [5]): 4.3 ng/mL
- Luteal phase Progesterone (ng/ml), Mean (progesterone; [6]): 6.0 ng/mL
- Luteal phase Progesterone (ng/ml), Mean (progesterone; [7]): 7.0 ng/mL
- Luteal phase Progesterone (ng/ml), Mean (progesterone; [8]): 5.9 ng/mL
- Luteal phase Progesterone (ng/ml), Mean (progesterone; [9]): 6.0 ng/mL
- Luteal phase Progesterone (ng/ml), Mean (progesterone; [10]): 6.0 ng/mL
- Luteal phase Progesterone (ng/ml), Mean (progesterone; [11]): 6.8 ng/mL
- Luteal phase Progesterone (ng/ml), Mean (progesterone; [12]): 6.9 ng/mL
- Fertility Rate (female baboons [2]; Example XXXV, all matings of three mating cycles, CGP 11637, Squalene/Arlacel A): 70%
- Fertility Rate (%) (female baboons [2]; mating cycle 1): 73.3%
- No. Pregnant (female baboons [2]; mating cycle 1): 11
- Fertility Rate (%) (female baboons [2]; mating cycle 2): 75.0%
- No. Pregnant (female baboons [2]; mating cycle 2): 3
- Fertility Rate (%) (female baboons [2]; mating cycle 3): 0%
- No. Pregnant (female baboons [2]; mating cycle 3): 0
- Fertility Rate (%) (female baboons [2]; totals of mating cycles 1-3): 70.0%
- No. Pregnant (female baboons [2]; totals of mating cycles 1-3): 14
- pregnancies in total (female baboons [2]; in vivo): 14

From patent US6716428B1, “Antigenic modification of polypeptides” (The Ohio State University Research Foundation, priority 1999, dated 2004)
